{"source": "the OligoGym collection", "note": "HELM strings list units from the 5' end as sugar, base in round brackets, then linkage (d deoxyribose, r ribose, m 2'-O-methyl, p phosphodiester). Strings are as the collection lists them; they lack the last nucleoside at the 3' end of the tested compound. [moe] = 2'-O-(2-methoxyethyl) (MOE); [sp] = phosphorothioate linkage; [m5C] = 5-methylcytosine"}
{"biological_target": "ATXN2", "test": "mouse, dose not given", "conditions": "ASO", "units": {"3 h FOB score": "score 0-7"}}
{"substance": "RNA1{[moe](T)[sp].[moe](A)p.[moe](T)p.[moe](G)p.[moe](T)[sp].d(T)[sp].d(T)[sp].d(G)[sp].d(T)[sp].d([m5C])[sp].d(T)[sp].d(G)[sp].d(T)[sp].[moe]([m5C])p.[moe](T)p.[moe](T)[sp].[moe](A)}$$$$ (last 3' nucleoside missing)", "3 h FOB score": 6}
{"substance": "RNA1{[moe]([m5C])[sp].[moe](T)p.[moe]([m5C])p.[moe](T)p.[moe]([m5C])p.d([m5C])[sp].d(A)[sp].d(T)[sp].d(T)[sp].d(A)[sp].d(T)[sp].d(T)[sp].d(T)[sp].d([m5C])[sp].d(T)[sp].[moe](T)p.[moe]([m5C])p.[moe](A)[sp].[moe]([m5C])}$$$$ (last 3' nucleoside missing)", "3 h FOB score": 4}
{"substance": "RNA1{[moe]([m5C])[sp].[moe](T)p.[moe](A)p.[moe](A)p.[moe]([m5C])[sp].d(T)[sp].d(G)[sp].d(G)[sp].d(T)[sp].d(T)[sp].d(T)[sp].d(G)[sp].d([m5C])[sp].[moe]([m5C])p.[moe]([m5C])p.[moe](T)[sp].[moe](T)}$$$$ (last 3' nucleoside missing)", "3 h FOB score": 7}
{"substance": "RNA1{[moe]([m5C])[sp].[moe](A)p.[moe]([m5C])p.[moe](A)[sp].[moe](G)[sp].d(T)[sp].d(T)[sp].d(T)[sp].d([m5C])[sp].d(A)[sp].d([m5C])[sp].d(T)[sp].d(A)[sp].d(G)[sp].d(G)[sp].[moe](T)p.[moe](T)p.[moe]([m5C])[sp].[moe](T)}$$$$ (last 3' nucleoside missing)", "3 h FOB score": 4}
{"substance": "RNA1{[moe](G)[sp].[moe](A)p.[moe](T)p.[moe](A)p.[moe](T)p.d(G)[sp].d(T)[sp].d(T)[sp].d(A)[sp].d([m5C])[sp].d(A)[sp].d(A)[sp].d(A)[sp].d(T)[sp].d(T)[sp].[moe]([m5C])p.[moe](T)p.[moe]([m5C])[sp].[moe](T)}$$$$ (last 3' nucleoside missing)", "3 h FOB score": 0}
{"substance": "RNA1{[moe](A)[sp].[moe](G)p.[moe]([m5C])p.[moe](A)p.[moe](T)p.d(G)[sp].d(A)[sp].d(T)[sp].d([m5C])[sp].d(T)[sp].d(T)[sp].d(G)[sp].d(T)[sp].d(G)[sp].d(T)[sp].[moe](A)p.[moe](T)p.[moe](A)[sp].[moe](T)}$$$$ (last 3' nucleoside missing)", "3 h FOB score": 3}
{"substance": "RNA1{[moe]([m5C])[sp].[moe](T)p.[moe](G)p.[moe](T)p.[moe](A)p.d([m5C])[sp].d(T)[sp].d(T)[sp].d(T)[sp].d(T)[sp].d([m5C])[sp].d(T)[sp].d([m5C])[sp].d(A)[sp].d(T)[sp].[moe](G)p.[moe](T)p.[moe](G)[sp].[moe]([m5C])}$$$$ (last 3' nucleoside missing)", "3 h FOB score": 1.25}
{"substance": "RNA1{[moe]([m5C])[sp].[moe](T)p.[moe](A)p.[moe](T)p.[moe](T)[sp].d(T)[sp].d([m5C])[sp].d(T)[sp].d(T)[sp].d(T)[sp].d(G)[sp].d(T)[sp].d([m5C])[sp].[moe]([m5C])p.[moe](A)p.[moe](G)[sp].[moe](G)}$$$$ (last 3' nucleoside missing)", "3 h FOB score": 3.25}
{"substance": "RNA1{[moe](A)[sp].[moe](G)p.[moe]([m5C])p.[moe](T)p.[moe]([m5C])p.d(T)[sp].d(G)[sp].d(T)[sp].d(T)[sp].d([m5C])[sp].d(G)[sp].d(A)[sp].d(T)[sp].d(G)[sp].d([m5C])[sp].[moe](A)p.[moe](G)p.[moe](G)[sp].[moe](A)}$$$$ (last 3' nucleoside missing)", "3 h FOB score": 4}
{"substance": "RNA1{[moe]([m5C])[sp].[moe](T)p.[moe](G)p.[moe](G)p.d(A)[sp].d(T)[sp].d(T)[sp].d([m5C])[sp].d(T)[sp].d(G)[sp].d(T)[sp].d(A)[sp].d([m5C])[sp].d(T)[sp].[moe](T)p.[moe](T)p.[moe](T)p.[moe]([m5C])[sp].[moe](T)}$$$$ (last 3' nucleoside missing)", "3 h FOB score": 2}
{"substance": "RNA1{[moe](A)[sp].[moe](T)p.[moe]([m5C])p.[moe](A)p.[moe](T)[sp].d([m5C])[sp].d(A)[sp].d(T)[sp].d(T)[sp].d(T)[sp].d(T)[sp].d([m5C])[sp].d([m5C])[sp].[moe](A)p.[moe](G)p.[moe](G)[sp].[moe](G)}$$$$ (last 3' nucleoside missing)", "3 h FOB score": 4.5}
{"substance": "RNA1{[moe](T)[sp].[moe](G)p.[moe](T)p.[moe](G)p.[moe](T)p.d(T)[sp].d([m5C])[sp].d(A)[sp].d(T)[sp].d(G)[sp].d(A)[sp].d([m5C])[sp].d(T)[sp].d(T)[sp].d(T)[sp].[moe]([m5C])p.[moe](A)p.[moe](A)[sp].[moe](G)}$$$$ (last 3' nucleoside missing)", "3 h FOB score": 4.5}
{"substance": "RNA1{[moe](T)[sp].[moe](A)p.[moe](G)p.[moe](T)p.[moe](G)p.d(T)[sp].d(T)[sp].d(T)[sp].d(G)[sp].d(G)[sp].d(G)[sp].d(A)[sp].d(T)[sp].d(G)[sp].d([m5C])[sp].[moe](T)p.[moe](T)p.[moe]([m5C])[sp].[moe](A)}$$$$ (last 3' nucleoside missing)", "3 h FOB score": 6.25}
{"substance": "RNA1{[moe]([m5C])[sp].[moe](T)p.[moe]([m5C])p.[moe]([m5C])p.[moe](A)[sp].d(T)[sp].d(T)[sp].d(A)[sp].d(T)[sp].d(T)[sp].d(T)[sp].d([m5C])[sp].d(T)[sp].[moe](T)p.[moe]([m5C])p.[moe](A)[sp].[moe]([m5C])}$$$$ (last 3' nucleoside missing)", "3 h FOB score": 3.5}
{"substance": "RNA1{[moe](T)[sp].[moe]([m5C])p.[moe](A)p.[moe](T)p.[moe](T)p.d(T)[sp].d(T)[sp].d(A)[sp].d(T)[sp].d(T)[sp].d([m5C])[sp].d(T)[sp].d(G)[sp].d([m5C])[sp].d(T)[sp].[moe](T)p.[moe](T)p.[moe](G)[sp].[moe]([m5C])}$$$$ (last 3' nucleoside missing)", "3 h FOB score": 2}
{"substance": "RNA1{[moe](T)[sp].[moe](A)p.[moe]([m5C])p.[moe](T)p.[moe](T)[sp].d([m5C])[sp].d(A)[sp].d([m5C])[sp].d(A)[sp].d(T)[sp].d(T)[sp].d(T)[sp].d(G)[sp].[moe](G)p.[moe](A)p.[moe](G)[sp].[moe]([m5C])}$$$$ (last 3' nucleoside missing)", "3 h FOB score": 3.25}
{"substance": "RNA1{[moe](T)[sp].[moe](G)p.[moe](T)p.[moe](G)p.[moe](A)p.d(G)[sp].d(T)[sp].d(T)[sp].d([m5C])[sp].d(A)[sp].d([m5C])[sp].d([m5C])[sp].d(T)[sp].d(G)[sp].d([m5C])[sp].[moe](A)p.[moe](T)p.[moe]([m5C])[sp].[moe]([m5C])}$$$$ (last 3' nucleoside missing)", "3 h FOB score": 3.5}
{"substance": "RNA1{[moe](G)[sp].[moe](T)p.[moe](A)p.[moe](A)p.[moe]([m5C])p.d(A)[sp].d(A)[sp].d(T)[sp].d(T)[sp].d(G)[sp].d(T)[sp].d(A)[sp].d(A)[sp].d(A)[sp].d(T)[sp].[moe]([m5C])p.[moe]([m5C])p.[moe](A)[sp].[moe](T)}$$$$ (last 3' nucleoside missing)", "3 h FOB score": 0.75}
{"substance": "RNA1{[moe]([m5C])[sp].[moe](T)p.[moe](G)p.[moe]([m5C])p.[moe](T)p.[moe](A)p.d(A)[sp].d([m5C])[sp].d(T)[sp].d(G)[sp].d(G)[sp].d(T)[sp].d(T)[sp].d(T)[sp].d(G)[sp].d([m5C])[sp].[moe]([m5C])p.[moe]([m5C])[sp].[moe](T)}$$$$ (last 3' nucleoside missing)", "3 h FOB score": 5.5}
